What all share (experiment): NCI tumour cell line growth inhibition, 48 h
Test [1] has as its system UO-31.
Test [2] concerns SNB-78.
Test [3] relates to K562.
For test [4], the system named is COLO 205.
Test [5] concerns SK-MEL-28.
Test [6] deals with MOLT-4.
The subject of test [7] is CAKI-1.
The test system of test [8] is Hs-578T.
In test [9] the test system is PC-3.
Test [10] deals with UACC-257.
In test [11] the test system is SF-268.
Test [12] has as its system SF-539.
The test system of test [13] is IGROV-1.
The subject of test [14] is HT-29.
The test system of test [15] is HL-60.
The test system of test [16] is M19-MEL.
The subject of test [17] is SNB-75.
Test [18] concerns DLD-1.
Test [19] deals with 786-0.
Test [20] has as its system NCI/ADR-RES.

SMILES strings stand for the structures.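 Step 1: Grow cells in 96-well plates. Step 2: Expose to compound for 48 hours at 5 concentrations. Step 3: Interpolate endpoints linearly; if unreached, use highest concentration. GI50 is the concentration that inhibits growth by half.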 Activity calls are given as the source filed them. Cut-off read from the data, not from the text of the source: active = GI50 up to about 1.1 µM and inactive = higher.

Regarding `Cc1cc(Cl)ccc1Nc1nc2c(s1)C(=O)c1ccccc1C2=O`, the GI50 in test [1] was 4.45 µM (inactive); in test [2] it was 14.5 µM (inactive); in [3], 2.41 µM (inactive); in test [4], 4.33 µM (inactive); in [5], 1.98 µM (inactive); in [6], 1.86 µM (inactive). In addition, the GI50 in test [7] was 6.3 µM (inactive); in test [8], 2.39 µM (inactive); in [9] it was 1.82 µM (inactive); in test [10] it was 2.53 µM (inactive); in test [11], 3.24 µM (inactive); in test [12], 3.39 µM (inactive). Besides, the GI50 in [13] is 4.51 µM (inactive); in [14], 18.3 µM (inactive); in [15], 0.621 µM (active); in [16], 0.728 µM (active); in test [17] it was 7.33 µM (inactive); in test [18] it was 5.45 µM (inactive). Also, in test [19], the GI50 is 1.71 µM (inactive).

Regarding `Cc1ccc(C(=O)Nc2ccc(S(=O)(=O)O)c3cc(S(=O)(=O)O)cc(S(=O)(=O)O)c23)cc1NC(=O)c1cccc(NC(=O)Nc2cccc(C(=O)Nc3cc(C(=O)Nc4ccc(S(=O)(=O)O)c5cc(S(=O)(=O)O)cc(S(=O)(=O)O)c45)ccc3C)c2)c1` [SURAMIN], the GI50 in test [20] was > 100 µM (inactive); in [1] it was 39.4 µM (inactive); in [2], > 71.3 µM (inactive); in test [3], > 93.5 µM (inactive); in test [4], > 72.9 µM (inactive); in test [5] it was > 91.6 µM (inactive). The GI50 in test [6] was > 80 µM (inactive); in [7], 73.5 µM (inactive); in test [8] it was > 100 µM (inactive); in test [9], > 100 µM (inactive); in [10] it was > 100 µM (inactive); in test [11], 66.2 µM (inactive). The GI50 in test [12] was > 100 µM (inactive); in test [13] it was 69.3 µM (inactive); in [14], 62.4 µM (inactive); in [15], 49.4 µM (inactive); in [16], 59.7 µM (inactive); in test [17] it was 48.2 µM (inactive). Also, the results for the GI50 in [18] and in test [19] were 97.5 µM (inactive) and 74.6 µM (inactive), respectively.

Consider `COc1ccc(/C=C\c2cc(OC)c(OC)c(OC)c2)cc1OCC(=O)O`, for which the GI50 is 2.21 µM (inactive) in [20]; 7.13 µM (inactive) in test [1]; 4.17 µM (inactive) in [2]; 3.68 µM (inactive) in [3]; > 100 µM (inactive) in [4]; 6.61 µM (inactive) in test [5]. In addition, the GI50 in [6] was 6.41 µM (inactive); in test [7], 48.2 µM (inactive); in test [8], 2.93 µM (inactive); in test [9], 5.5 µM (inactive); in test [10], 5.61 µM (inactive); in [11], 10.9 µM (inactive). The GI50 in test [12] was 3.64 µM (inactive); in [13], 46.8 µM (inactive); in test [14], > 100 µM (inactive); in test [15] it was 2.84 µM (inactive); in [16], 4.55 µM (inactive); in [17], 5.15 µM (inactive). Moreover, the GI50 is 7.45 µM (inactive) in test [18] and 37.6 µM (inactive) in test [19].
